The subject of data set [1] is NIH3T3, HepG2 and HeLa cells. Briefly: In vitro transfection in the absence and in the presence of serum proteins. Type of data set: cell-based. The settings on record: with versus without serum proteins; FIG. 3. How it is done:
FIG. 3: Measurement of the in vitro efficiency of transfection of compound 1 according to the invention into NIH3T3, HepG2 and HeLa cells, in the absence (white bars) and in the presence (black bars) of serum proteins and in comparison with its amine-containing homologue (RPR120535).
(§1) The measurements were carried out at different charge ratios which are plotted on the x-axis. The expression of luciferase is plotted on the y-axis and is expressed in RLU (Relative Light Unit) per well.
(§2) The nucleic acid used is the plasmid pXL2774 (WO 97/10343) comprising the gene encoding luciferase under the control of the human cytomegalovirus (CMV) promoter.
The nucleic acid solutions are diluted to 20 μg/ml in physiological saline (0.15 M sodium chloride NaCl). […]
The cells are washed with twice 500 μl of medium free of serum proteins and grown again either in serum-free medium (transfection in the absence of serum), or in complete medium (transfection in the presence of serum). […] When the cells are transfected in the absence of serum, the growth medium is supplemented 2 hours after transfection with the appropriate quantity of serum.
The transfection efficiency is evaluated 48 hours after the transfection by measuring the expression of luciferase according to the recommendations given for the use of the Promega kit [Luciferase Assay System]. […]

In data set [2] the test system is HeLa cells. Briefly: In vitro transfection of luciferase plasmid pXL2774. Type of data set: cell-based. As for the experimental part: (§3) FIG. 2: Measurement of the in vitro efficiency of transfection of compound 1 according to the invention into NIH3T3, HepG2 and HeLa cells, in the absence of serum proteins and in comparison with its amine-containing homologue (RPR120535).
as §1, §2
(§4) The nucleic acid solutions are diluted to 20 μg/ml in physiological saline (0.15 M sodium chloride NaCl).
(§5) The products described in the invention are dissolved in water at a concentration varying from 60 to 240 μM and mixed volume for volume with the DNA solution; the final saline concentration is 75 mM.
(§6) The cells are cultured under appropriate conditions in 24-well microplates (2 cm^2 /well) and are transfected while they are in the exponential growth phase and at 50-70% confluence.
(§7) The cells are washed with twice 500 μl of medium free of serum proteins and grown again either in serum-free medium (transfection in the absence of serum), or in complete medium (transfection in the presence of serum). 50 μl of transfectant mixture [i.e. 0.5 μg DNA/well] are added to the cells [3 wells/condition DNA vector]. When the cells are transfected in the absence of serum, the growth medium is supplemented 2 hours after transfection with the appropriate quantity of serum.
(§8) The transfection efficiency is evaluated 48 hours after the transfection by measuring the expression of luciferase according to the recommendations given for the use of the Promega kit [Luciferase Assay System]. The toxicity of the transfectant mixtures is estimated by a measurement of the protein concentrations in the cell lysates.
(§9) Compound 1 was used in comparison with the cationic lipid RPR120535 (TFA salt) [described in patent application WO 97/18185 incorporated into the present application by way of reference] as DNA vector to transfect three different cell lines: NIH3T3 cells, HepG2 cells and HeLa cells. […] The transfection efficiency for compound 1 and for the cationic lipid for comparison in the three cell types is represented in FIG. 2, for nmol of compound/μg of DNA ratios of between 3 and 12.

The subject of data set [3] is HepG2 cells. The description is as above. Type of data set: cell-based. As for the experimental part:
as §3, §1, §2, §4, §5, §6, §7, §8, §9

Data set [4] relates to NIH3T3 cells. Described as above. Type of data set: cell-based. Conditions: FIG. 2, absence of serum proteins, 48 hours. How it is done: as §3, §1, §2, §4, §5, §6, §7, §8, §9
Data set [5] concerns HeLa cells. Briefly: Toxicity of the transfectant mixtures (protein concentrations in the cell lysates). Type of data set: cell-based. As for the experimental part: as §6, §7, §8, §9
Data set [6] relates to HepG2 cells. The data set is described as above. Type of data set: cell-based. How it is done: as §6, §7, §8, §9
Data set [7] has as its system NIH3T3 cells. The description is as above. Type of data set: cell-based. How it is done: as §6, §7, §8, §9
The test system of data set [8] is DNA. Briefly: Physicochemical phase (A, B or C) of the nucleolipid complexes as a function of the charge ratio. The settings on record: micellar form and in combination with a neutral colipid (DOPE and cholesterol). How it is done: FIG. 8: Tables indicating the physicochemical phase (phase A, B or C) in which exist the nucleolipid complexes formed with compound 2 in comparison with its amine-containing analogue, as a function of the charge ratio.
The determination of the phases was carried out for compound 2 and for its amine-containing homologue in micellar form and in combination with a neutral colipid (DOPE and cholesterol).
The nucleic acid used is the plasmid pXL3031, as described in the preceding example.
The complexes are prepared at concentrations of 0.25 mg of DNA/ml with an appropriate quantity of lipid as defined in the present invention in the desired charge ratio. The complex is prepared in a medium containing 5% glucose and a 20 mM solution of sodium chloride. 50 μl of nucleolipid complex are then diluted 20-fold in 950 μl of solution containing 5% glucose and a 20 mM solution of sodium chloride.
The size of the complexes was determined by measuring the hydrodynamic diameter by dynamic light scattering with the aid of a Coulter N4+ apparatus.
The complexes formed are negatively charged overall, which makes the crossing of cell membranes difficult. It is thus preferable for the values not to be situated in this region in order to transfect the DNA.
Phase B for which the DNA is completely saturated with the cationic lipid and the complexes are neutral or slightly positive overall. The ionic repulsions being […], this phase is unstable. A phenomenon of "cross-linking" may occur, leading to precipitation of the complexes. The complexes in this state cannot therefore be used as injection.
Phase C for which the DNA is oversaturated with the lipid and the complexes are therefore positive overall. […] The complexes in phase C are therefore particularly suitable for use for the transfer of nucleic acids into cells.
The tables in FIGS. 8, 9, 10 and 11 compare the phases as a function of the charge ratios between the compounds of the invention and their amine-containing analogues, that is to say the cationic lipids whose amidine or guanidine function is replaced by an amino function. It is observed that phase B is shifted towards much lower charge ratios. Thus, the incorporation of amidine functions into the cationic head contributes to the increase in the affinity of the compounds for DNA. This constitutes an important property of the compounds of the invention because the complexes which they form with DNA may be used in phase C without as a result being at excessively high charge ratios, with the beneficial effects which result therefrom on toxicity.

[9] abbreviates: FIG. 2, absence of serum proteins, 48 hours.

`CCCCCCCCCCCCCCCCCCN(CCCCCCCCCCCCCCCCCC)C(=O)CNC(=O)CNCCCNCCCCNCCCN` [RPR120535, reference compound]: the “transfection levels with or without serum proteins” value in data set [1] is recorded as “a strong inhibition is observed due to the presence of the serum proteins”.

`CCCCCCCCCCCCCCCCCCN(CCCCCCCCCCCCCCCCCC)C(=O)CNC(=O)CNCCCNCCCCNCCCNC(=N)N` [compound 1, N-dioctadecylcarbamoylmethyl-2-{3-[4-(3-guanidinopropylamino)butylamino]propylamino}acetamide]: the results for the “ratio of cationic lipid to DNA giving the maximum transfection efficiency” value in data set [2] (setting [9]), in data set [3] (setting [9]) and in data set [4] were 9 nanomoles cationic lipid/μg of DNA, 9 nanomoles cationic lipid/μg of DNA and 6 nanomoles cationic lipid/μg of DNA, respectively. Further, the “luciferase expression level relative to the product tested in comparison (RPR120535)” value in data set [2] (absence of serum) and in data set [3] (absence of serum) was 2 to 4 times higher throughout. Also, the “toxicity of the transfectant mixture” value in data set [5], in data set [6] and in data set [7] was “no significant toxicity was detected” throughout. Besides, in data set [1], the “transfection levels with or without serum proteins” value is given as “the transfection levels with or without serum proteins are the same”.

For the compound `CCCCCCCCCCCCCCCCCCN(CCCCCCCCCCCCCCCCCC)C(=O)CNCCN(CCNC(=N)N)CCNC(=N)N` [compound 2, 2-{2-[bis(2-guanidinoethyl)amino]ethylamino}-N,N-dioctadecylacetamide], the “shift of the unstable phase B in comparison with the amine-containing analogue” value (“shift … with the amine-containing analogue” below) in data set [8] is listed as “a shift is observed from the unstable phase B towards lower charge ratios”.

As for `CCCCCCCCCCCCCCN(CCCCCCCCCCCCCC)C(=O)CNC(=O)CNCCCNCCCCNCCCNC(=N)N` [compound 3, N-ditetradecylcarbamoylmethyl-2-{3-[4-(3-guanidinopropylamino)butylamino]propylamino}acetamide], in data set [8], the “shift … with the amine-containing analogue” value is on record as “a shift is observed from the unstable phase B towards lower charge ratios”.

Regarding `CCCCCCCCCCCCCCN(CCCCCCCCCCCCCC)C(=O)CNC(=O)CN(CCCCNCCCNC(=N)N)CCCNC(=N)N` [compound 5, N-ditetradecylcarbamoylmethyl-2-{(3-guanidinopropyl)-[4-(3-guanidinopropylamino)butyl]amino}acetamide], in data set [8], the “shift … with the amine-containing analogue” value is recorded as “a shift is observed from the unstable phase B towards lower charge ratios”.

Regarding `CCCCCCCCCCCCCCN(CCCCCCCCCCCCCC)C(=O)CNC(=O)CNCCCN(CCCCN(CCCNC(=N)N)CCCNC(=N)N)CCCNC(=N)N` [compound 6, 2-{3-[{4-[bis(3-guanidinopropyl)amino]butyl}-(3-guanidinopropyl)amino]-propylamino}-N-ditetradecylcarbamoylmethylacetamide], the “shift … with the amine-containing analogue” value in data set [8] is reported as “a shift is observed from the nstable phase B towards lower charge ratios”.
